Assay results: patent US10869931B2, “Polyethylene glycol-modified angiogenesis inhibitor HM-1 and application thereof” (NANJING ANJI BIOLOGICAL TECHNOLOGY CO.,LTD, priority 2016, dated 2020)
Marks after values point to notes of the source that are not given here. Where no end group is shown, it is not given here.

How the values were obtained:
[1] = tested on: Prostate cancer tumor cells; test: MTT proliferation inhibition, prostate cancer cells; assay type: cell-based, human; parameters: concentration or dose not given beside the values; conditions: 48 h
Procedure: (§1) The activity of mPEG-HM-1 to inhibit the growth of various tumor cells was examined by MTT assay. The tumor cells were cultured to a concentration of 90% or more in a 37° C., 5% CO2 incubator and collected by trypsinization. The cells were resuspended in the culture medium and counted under a microscope to adjust the cell concentration to 2×10^4 cells/mL, the cell suspension was inoculated into a 96-well plate at 100 μL/well and incubated overnight at 37° C. in a 5% CO2 incubator. mPEG-HM-1 was diluted with the culture solution to each predetermined concentration. Docetaxel is diluted to the final concentration with the culture medium. After the cells were fully attached, each dilution was added to a 96-well plate (100 μL/well). The mPEG-HM-1 dilution was added as a drug-administered group, and docetaxel was added as a positive control group, and a culture solution without any drug was used as a negative control group. Incubate for 48 h at 37° C. in a 5% CO2 incubator. 5 mg/mL of MTT was added to a 96-well plate at 20 μL per well, and incubation was continued for 4 hours. The medium was aspirated, dissolved in 150 μL of DMSO per well, and gently mixed by shaking for 10 min. The absorbance was measured at a measurement wavelength of 570 nm and a reference wavelength of 630 nm using a microplate reader, and the rate of growth inhibition (proliferation inhibition, PI) was calculated. The formula is as follows: PI (%)=1−administration group/negative group
(§2) The test was repeated 3 times independently, and the results obtained by the test were expressed as mean±SD, and the test results are shown in Table 15 to Table 18.

[2] = tested on: xylene-induced ear swelling in Kunming mice; test: Xylene-induced ear swelling in mice; assay type: in vivo, mouse; conditions: for Inhibition rate: ear swelling vs control
Procedure: Kunming mice were used. The saline group was used as the blank control group, the aspirin group (200 mg/kg) as the positive control group, and the mPEG-HM-1 administration group as the experimental group. Mice were administered once daily for 5 consecutive days. The blank control group was given an equal volume of physiological saline. One hour after the last administration, 0.05 mL of xylene was applied to both sides of the right ear of the mice to cause inflammation, and the left ear was not coated as normal ears. After 2 h, the mice were sacrificed by dislocation, and the ears were cut along the auricle. Ear pieces were taken with a puncher, weighed, and the swelling degree and swelling rate were calculated. Swelling degree=right ear piece weight-left ear piece weight, swelling rate=(swelling degree/left ear piece weight)×100%. Statistical t-test was performed on the test results, *P<0.05 was a significant difference, and **P<0.01 was a very significant difference. See Table 31 to Table 34 for the results.

[3] = tested on: neovascularization in rat model of premature retinopathy; test: Fluctuating-oxygen rat model of premature retinopathy (endothelial nuclei count); assay type: in vivo; conditions: for Cell nuclei count: day 14
Procedure: A fluctuating oxygen-induced animal model was used to randomly divide the newborn rats that were naturally delivered on the same day (within 12 hours) into three groups: the oxygenated model group, the oxygenated treatment group, and the normal control group. The oxygenated model group was subdivided into three subgroup models and along with the oxygenated treatment group was placed in a semi-closed oxygen chamber made of plexiglass. The chamber was connected to medical oxygen, and the oxygen analyzer was adjusted to a concentration of 80%±2%. After 24 hours, Nitrogen gas was introduced into the oxygen chamber, and the oxygen concentration was adjusted to 10%±2% and maintained for 24 h. This process was repeated, so that the oxygen concentration in the oxygen chamber is switched between 80% and 10% every 24 hours, and then transferred to the air for 7 days. The oxygen concentration was monitored 8 times a day, and the ambient temperature in the control cabin was 23° C.±2° C. Bedding change, adding food, changing water and replacing mother rats were performed once a day. The normal control group was placed in an animal facility environment. […] The oxygenated therapeutic components were divided into four subgroups, and on the 7th day of modeling, mPEG-SC-HM-1, mPEG2-NHS-HM-1, mPEG-ALD10k-HM-1, and mPEG-bALD-HM-1 were respectively administered by intravitreal injection. Only normal saline was administered to the oxygen model group and the control group. The administrations continued for 1 week. […] After immersion in wax, serial section at thickness of 4 μm was performed, wherein the sections were kept away from the optic disc. The sections are parallel to the sagittal plane of the cornea to the optic disc. Ten sections per eyeball were randomly selected from each eyeball to be stained with hematoxylin and eosin, and the number of vascular endothelial cells that broke through the retinal inner membrane was counted (only the vascular endothelial nucleus closely related to the inner retinal membrane was counted), and the average numbers of endothelial cells per eyeball per slice was counted.

[4] = tested on: Ovarian cancer tumor cells; test: MTT proliferation inhibition, ovarian cancer cells; assay type: cell-based, human; parameters: concentration or dose not given beside the values; conditions: 48 h
Procedure: as §1, §2

[5] = tested on: collagen induced arthritis (CIA) in DBA/1 mice; test: Collagen-induced mouse arthritis (CIA) model; assay type: in vivo; conditions: for Joint swelling / Left and right paw swelling / Clinical score: CIA DBA/1 mice; for Clinical score: maximum score 16
mouse spleen lymphocytes = test: ConA-stimulated mouse spleen lymphocyte proliferation (MTT); assay type: cell-based; conditions: ConA 5 μg/mL, 48 h
Procedure: Tris-NH4Cl was used to break the red blood cells, and the cells were allowed to stand in an ice water bath for 4 min, centrifuged (1000 rpm×5 min), the supernatant was discarded, and the cells were washed twice with sterile PBS. Finally, cells were suspended in RPMI 1640 medium (5 mL) supplemented with 10% calf serum, counted, adjusted to a cell concentration of 5×10^6/mL, and cultured in a 96-well culture plate The test group consisted of blank control group, concanavalin A (ConA) group, dexamethasone (Dex) group (0.02 mg/mL) and mPEG-HM-1 group. […] The cells were cultured in a 37° C. cell culture chamber for 48 h. After the completion of the culture, 20 μL of MTT was added to each well, and the culture was continued for 4 h. Finally, all the solutions in each well were discarded, 100 μL of DMSO was added to each well, and the mixture was shaken and detected by a microplate reader OD value at 570 nm, 5 parallels per hole.

Melanoma tumor cells = test: MTT proliferation inhibition, melanoma cells; assay type: cell-based, human; parameters: concentration or dose not given beside the values; conditions: 48 h
Procedure: as §1, §2

[6] = tested on: Thyroid cancer tumor cells; test: MTT proliferation inhibition, thyroid cancer cells; assay type: cell-based, human; parameters: concentration or dose not given beside the values; conditions: 48 h
Procedure: as §1, §2

[7] = tested on: Head and neck cancer tumor cells; test: MTT proliferation inhibition, head and neck cancer cells; assay type: cell-based, human; parameters: concentration or dose not given beside the values; conditions: 48 h
Procedure: as §1, §2

Brain tumor cells = test: MTT proliferation inhibition, brain tumor cells; assay type: cell-based, human; parameters: concentration or dose not given beside the values; conditions: 48 h
Procedure: as §1, §2

[8] = 10 mg/kg once daily for 5 days, 2 h after xylene
[9] = 20 mg/kg once daily for 5 days, 2 h after xylene
[10] = 10 mg/kg subcutaneous from day 30 of modeling
[11] = 40 mg/kg once daily for 5 days, 2 h after xylene
[12] = 20 mg/kg subcutaneous from day 30 of modeling
[13] = 80 mg/kg once daily for 5 days, 2 h after xylene
[14] = 40 mg/kg subcutaneous from day 30 of modeling
[15] = 80 mg/kg subcutaneous from day 30 of modeling

Row | Substance | rate of growth inhibition [1] [%] | Swelling [2, 8] | Inhibition rate ([2]; 10 mg/kg once daily for 5 days) [%] | Swelling [2, 9] | Inhibition rate ([2]; 20 mg/kg once daily for 5 days) [%] | rate of growth inhibition [4] [%] | A570 nm/A630 nm (mouse spleen lymphocytes; 10 μg/mL) | Inhibition Rate of spleen lymphocyte proliferation (mouse spleen lymphocytes; 10 μg/mL) [%] | A570 nm/A630 nm (mouse spleen lymphocytes; 20 μg/mL) | Inhibition Rate of spleen lymphocyte proliferation (mouse spleen lymphocytes; 20 μg/mL) [%] | rate of growth inhibition (Melanoma tumor cells) [%] | rate of growth inhibition [6] [%] | rate of growth inhibition [7] [%] | rate of growth inhibition (Brain tumor cells) [%] | Swelling [2, 11] | Inhibition rate ([2]; 40 mg/kg once daily for 5 days) [%] | A570 nm/A630 nm (mouse spleen lymphocytes; 40 μg/mL) | Inhibition Rate of spleen lymphocyte proliferation (mouse spleen lymphocytes; 40 μg/mL) [%] | Swelling [2, 13] | Inhibition rate ([2]; 80 mg/kg once daily for 5 days) [%] | other results
1 | mPEG-ALD5k-Arg-Gly-Ala-Asp-Arg-Ala-Gly-Gly-Gly-Gly-Arg-Gly-Asp ({mPEG‑ALD 5 kDa}-RGADRAGGGGRGD) [mPEG-ALD5k-HM-1] | 38.47 ± 11.52 | 4.80 ± 0.35* mg | 21.52 | 4.16 ± 0.14** mg | 32.10 | 65.81 ± 20.42 | 0.5448 ± 0.1072 | 20.68 | 0.4779 ± 0.1178 | 30.42 | 63.61 ± 21.30 | 40.23 ± 10.05 | 40.71 ± 11.33 | 42.15 ± 12.89 | – | – | – | – | – | – | Inhibition rate ([2]; 5 mg/kg once daily for 5 days): 10.17%; Swelling ([2]; 5 mg/kg once daily for 5 days, right minus left ear piece weight 2 h after xylene): 5.50 ± 0.21 mg; Cell nuclei count ([3]; 25 μg intravitreal for 1 week from day 7, vascular endothelial nuclei breaking through inner retinal membrane per slice): 8.927 ± 2.902; Joint swelling [5, 10]: 0.74 ± 0.14 mm; Left and right paw swelling [5, 10]: 0.72 ± 0.15 mm; Clinical score [5, 10]: 8.93 ± 1.27; A570 nm/A630 nm (mouse spleen lymphocytes; 5 μg/mL): 0.6241 ± 0.0917; Inhibition Rate of spleen lymphocyte proliferation (mouse spleen lymphocytes; 5 μg/mL): 9.14%
2 | mPEG-ALD10k-Arg-Gly-Ala-Asp-Arg-Ala-Gly-Gly-Gly-Gly-Arg-Gly-Asp ({mPEG‑ALD 10 kDa}-RGADRAGGGGRGD) [mPEG-ALD10k-HM-1] | 51.09 ± 11.78 | 5.36 ± 0.12 mg | 12.36 | 4.67 ± 0.79* mg | 23.67 | 85.73 ± 22.17 | 0.6116 ± 0.1046 | 10.96 | 0.5352 ± 0.1022 | 22.08 | 88.39 ± 22.38 | 55.30 ± 13.10 | 48.93 ± 12.14 | 58.25 ± 14.02 | 3.58 ± 0.33** mg | 41.58 | 0.4651 ± 0.1086 | 32.29 | – | – | Cell nuclei count ([3]; 50 μg intravitreal for 1 week from day 7, vascular endothelial nuclei per slice): 7.581 ± 1.903; Joint swelling [5, 12]: 0.73 ± 0.15 mm; Left and right paw swelling [5, 12]: 0.70 ± 0.14 mm; Clinical score [5, 12]: 8.65 ± 1.33; limbs score (in words) ([5]; CIA mice, subcutaneous, once every three days, vs model control group): significantly lower than that of the model control group
3 | mPEG-ALD20k-Arg-Gly-Ala-Asp-Arg-Ala-Gly-Gly-Gly-Gly-Arg-Gly-Asp ({mPEG‑ALD 20 kDa}-RGADRAGGGGRGD) [mPEG-ALD20k-HM-1] | 43.99 ± 12.77 | – | – | 4.89 ± 0.20 mg | 20.10 | 80.68 ± 21.69 | – | – | 0.6035 ± 0.0989 | 12.14 | 80.71 ± 23.46 | 50.35 ± 15.23 | 47.61 ± 10.68 | 56.89 ± 15.41 | 4.52 ± 0.32* mg | 26.19 | 0.4876 ± 0.1259 | 29.02 | 3.70 ± 0.20** mg | 39.47 | inhibition rate of ear swelling ([2]; 80 mg/kg, once daily for 5 days, mice): 37.76%; Cell nuclei count ([3]; 100 μg intravitreal for 1 week from day 7, vascular endothelial nuclei per slice): 7.036 ± 1.315; vascular endothelial cell nuclei count ([3]; neonatal rats, 100 μg intravitreal, 1 week): 7.036±1.315; Joint swelling [5, 14]: 0.72 ± 0.16 mm; Left and right paw swelling [5, 14]: 0.74 ± 0.13 mm; Clinical score [5, 14]: 8.66 ± 1.38; A570 nm/A630 nm (mouse spleen lymphocytes; 80 μg/mL): 0.4406 ± 0.1074; Inhibition Rate of spleen lymphocyte proliferation (mouse spleen lymphocytes; 80 μg/mL): 35.85%
4 | mPEG-ALD40k-Arg-Gly-Ala-Asp-Arg-Ala-Gly-Gly-Gly-Gly-Arg-Gly-Asp ({mPEG‑ALD 40 kDa}-RGADRAGGGGRGD) [mPEG-ALD40k-HM-1] | 42.91 ± 11.65 | – | – | – | – | 74.61 ± 20.09 | – | – | – | – | 75.18 ± 21.75 | 49.03 ± 13.08 | 42.18 ± 10.01 | 50.69 ± 14.41 | 5.41 ± 0.16 mg | 11.53 | 0.6176 ± 0.0998 | 10.09 | 4.77 ± 0.62* mg | 22.02 | Swelling ([2]; 160 mg/kg once daily for 5 days, 2 h after xylene): 4.16 ± 0.25** mg; Inhibition rate ([2]; 160 mg/kg once daily for 5 days): 32.09%; Cell nuclei count ([3]; 200 μg intravitreal for 1 week from day 7, vascular endothelial nuclei per slice): 8.673 ± 2.756; Joint swelling [5, 15]: 0.77 ± 0.14 mm; Left and right paw swelling [5, 15]: 0.79 ± 0.12 mm; Clinical score [5, 15]: 8.97 ± 1.42; A570 nm/A630 nm (mouse spleen lymphocytes; 80 μg/mL): 0.5040 ± 0.1239; Inhibition Rate of spleen lymphocyte proliferation (mouse spleen lymphocytes; 80 μg/mL): 26.63%; A570 nm/A630 nm (mouse spleen lymphocytes; 160 μg/mL): 0.4770 ± 0.1057; Inhibition Rate of spleen lymphocyte proliferation (mouse spleen lymphocytes; 160 μg/mL): 30.56%
